Results on ten molecules are retold here after patent publication EP2311457A1, “Pharmaceutical compositions for treating infections with drug resistant mycobacteria” (priority 2009, dated 2011).

Converted amounts (≈) assume the structure as drawn.

The assay deals with Mtb 09457/06 XDR. Put plainly: Drug susceptibility testing, radiometric MIC determination (BACTEC 460TB). The following applies: Mycobacterium tuberculosis, read-out: minimal inhibitory concentrations.
On to `C(=NNc1ncnc2ccccc12)c1ccc(OCc2ccccc2)cn1` [PH22-52, 5-benzyloxypyridine-2-aldehyde-4'-quinazolinylhydrazone], for which the MIC was 1 µg/mL (≈ 2.81 µM).

Regarding `Cc1ccc(C=NNc2nncc3ccccc23)nc1` [PH22-16, 5-methyl-pyridine-2-aldehyde-1'-phthalazinylhydrazone], the MIC is < 1 µg/mL.

Consider `CCc1ccc(C=NNc2cc(OC)ncn2)nc1` [PH22-33, 5-ethylpyridine-2-aldehyde-6'-methoxy-4'-pyrimidylhydrazone], for which the MIC was < 0.125 µg/mL.

In the case of `Cc1ccc(C=NNc2ccc3ccccc3n2)nc1` [PH22-14, 5-methylpyridine-2-aldehyde-2'-quinolylhydrazone], the MIC stood at 0.5 µg/mL (≈ 1.91 µM).

As for `c1ccc(C(=NNc2ccc3ccccc3n2)c2ccccn2)cc1` [PH22-15, 2-benzoylpyridine-2'-quinolylhydrazone], the MIC was determined as 0.25 µg/mL (≈ 0.771 µM).

Consider `C(=NNc1nncc2ccccc12)c1ccc(OCc2ccccc2)cn1` [PH22-6, 5-benzyloxypyridine-2-aldehyde-1'-phthalazinylhydrazone], for which the MIC worked out at 1 µg/mL (≈ 2.81 µM).

In the case of `C(=NNc1ccccn1)c1ccc(OCc2ccccc2)cn1` [PH22-49, 5-benzyloxypyridine-2-aldehyde-2'-pyridylhydrazone], the MIC was determined as 1 µg/mL (≈ 3.29 µM).

As for `c1ccc(C(=NNc2nncc3ccccc23)c2ccccn2)cc1` [PH22-22, 2-benzoylpyridine-1'-phthalazinylhydrazone], the MIC was found to be 5 µg/mL (≈ 15.4 µM).

In the case of `Cc1cccc(NN=Cc2ccccn2)n1` [PH22-31, pyridine-2-aldehyde-6'-methyl-2'-pyridylhydrazone], the MIC was 1 µg/mL (≈ 4.71 µM).

As for `Clc1ccc(NN=Cc2ccc(OCc3ccccc3)cn2)nn1` [PH22-51, 5-benzyloxypyridine-2-aldehyde-6'-chloro-3'-pyridazinylhydrazone], the MIC came to 1 µg/mL (≈ 2.94 µM).
